This is an account of results in patent US9938273B2 (Plexxikon Inc., priority 2015, dated 2018).

The target of one assay is T1, FLT3-ITD (Homo sapiens, UniProt P36888).
T1 sequence (P36888 1-993): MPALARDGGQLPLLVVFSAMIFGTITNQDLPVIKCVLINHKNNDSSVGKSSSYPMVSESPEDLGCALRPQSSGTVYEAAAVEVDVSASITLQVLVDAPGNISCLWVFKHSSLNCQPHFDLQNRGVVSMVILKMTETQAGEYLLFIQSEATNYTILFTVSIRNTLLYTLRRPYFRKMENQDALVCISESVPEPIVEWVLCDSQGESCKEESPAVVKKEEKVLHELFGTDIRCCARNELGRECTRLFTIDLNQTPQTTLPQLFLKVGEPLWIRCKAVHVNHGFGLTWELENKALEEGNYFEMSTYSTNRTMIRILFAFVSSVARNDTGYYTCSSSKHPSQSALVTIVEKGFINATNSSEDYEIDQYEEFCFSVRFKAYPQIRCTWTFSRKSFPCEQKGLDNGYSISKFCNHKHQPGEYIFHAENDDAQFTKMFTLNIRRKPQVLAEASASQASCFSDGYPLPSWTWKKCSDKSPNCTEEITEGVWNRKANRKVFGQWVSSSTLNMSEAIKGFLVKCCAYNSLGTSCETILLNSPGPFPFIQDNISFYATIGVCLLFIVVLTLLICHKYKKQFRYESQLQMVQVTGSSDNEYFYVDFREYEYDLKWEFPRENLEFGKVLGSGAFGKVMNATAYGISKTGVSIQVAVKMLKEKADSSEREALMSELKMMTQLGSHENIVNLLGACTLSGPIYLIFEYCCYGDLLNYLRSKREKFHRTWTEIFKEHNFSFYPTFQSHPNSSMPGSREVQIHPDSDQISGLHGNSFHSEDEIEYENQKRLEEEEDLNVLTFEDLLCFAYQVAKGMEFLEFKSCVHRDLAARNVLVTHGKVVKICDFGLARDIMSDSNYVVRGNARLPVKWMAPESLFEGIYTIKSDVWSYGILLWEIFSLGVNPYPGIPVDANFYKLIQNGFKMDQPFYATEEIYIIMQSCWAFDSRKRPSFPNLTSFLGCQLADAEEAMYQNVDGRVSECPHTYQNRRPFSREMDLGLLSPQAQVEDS
In words: AlphaScreen kinase assay with recombinant enzyme, FLT3-ITD. Type of assay: biochemical. As to conditions: 8pt; read-out: FLT3_ITD 8pt: IC50. As to the method: (§1) In order to determine the effect of compounds on FLT3 catalytic activity, kinase assays using recombinant enzymes and AlphaScreen® technology have been established. The catalytic activity of c-kit activity was also measured to determine selectivity of the compounds. When the kinases are catalytically active, they phosphorylate a biotinylated peptide substrate on tyrosine residues. Using AlphaScreen® technology, the ability of the compounds to affect the catalytic activity of the kinases can be measured quantitatively. The peptide substrate is immobilized by the AlphaScreen® Streptavidin Donor beads and, upon phosphorylation by a tyrosine kinase, can bind to AlphaScreen® Anti-Phosphotyrosine (PY20) Acceptor beads. Upon excitation of these beads with laser light at 680 nm, singlet oxygen is produced. This singlet oxygen is rapidly quenched, unless the AlphaScreen® Anti-Phosphotyrosine (PY20) Acceptor beads are in close proximity, in which case a proximity signal can be measured at 580 nm. In the presence of catalytic activity, there is a very strong proximity signal. Selective kinase inhibitors affect a decrease in this proximity signal through a decrease in tyrosine phosphorylation of the peptide substrate.
(§2) The assay was performed as summarized below.
(§3) Poly (Glu4-Tyr) Peptide, biotin conjugate [Biotin-GG(EEEEY)10EE] (SEQ ID NO: 4)
(§4) Final concentration=30 nM
(§5) Final concentration for IC50 determination=10 μM (FLT3-D835Y or FLT3-ITD) or 100 μM (c-KIT)
(§6) AlphaScreen® Phosphotyrosine (PY20) Assay Kit
(§7) Final concentration=10 μg/mL
(§8) Dilute compounds in DMSO to 20× final concentration.
(§9) Add 1 μl of compound to each well of 384 well reaction plate (Perkin Elmer #6005359).
(§10) Mix enzyme and Poly (Glu4-Tyr) Peptide substrate at 1.33× final concentration in assay buffer.
(§11) Mix ATP at 5× final concentration in assay buffer.
(§12) Add 15 μL enzyme/substrate mixture to the reaction plate.
(§13) Add 4 μL of ATP to the reaction plate.
(§14) Mix Streptavidin Donor beads at 6× final concentration in Stop/Detection buffer.
(§15) Add 5 μL Streptavidin Donor beads to the reaction plate. Centrifuge 1 minute, shake to mix, and incubate at room temperature for 20 minutes.
(§16) Mix Anti-Phosphotyrosine (PY20) Acceptor beads at 6× final concentration in Stop/Detection buffer.
(§17) Add 5 μL Anti-Phosphotyrosine (PY20) beads to the reaction plate.
(§18) Centrifuge 1 minute, shake to mix, and incubate at room temperature for 60 minutes.
(§19) Read plate on Wallac EnVision™ 2103 Multilabel Reader.
A general note: Alpha assays give light when donor and acceptor beads are brought close together.

The target in a further assay is T2, FLT3-D835Y (Homo sapiens, UniProt P36888, D835Y).
T2 construct: purchased Invitrogen PV3967
T2 sequence (P36888 27-993 D835Y): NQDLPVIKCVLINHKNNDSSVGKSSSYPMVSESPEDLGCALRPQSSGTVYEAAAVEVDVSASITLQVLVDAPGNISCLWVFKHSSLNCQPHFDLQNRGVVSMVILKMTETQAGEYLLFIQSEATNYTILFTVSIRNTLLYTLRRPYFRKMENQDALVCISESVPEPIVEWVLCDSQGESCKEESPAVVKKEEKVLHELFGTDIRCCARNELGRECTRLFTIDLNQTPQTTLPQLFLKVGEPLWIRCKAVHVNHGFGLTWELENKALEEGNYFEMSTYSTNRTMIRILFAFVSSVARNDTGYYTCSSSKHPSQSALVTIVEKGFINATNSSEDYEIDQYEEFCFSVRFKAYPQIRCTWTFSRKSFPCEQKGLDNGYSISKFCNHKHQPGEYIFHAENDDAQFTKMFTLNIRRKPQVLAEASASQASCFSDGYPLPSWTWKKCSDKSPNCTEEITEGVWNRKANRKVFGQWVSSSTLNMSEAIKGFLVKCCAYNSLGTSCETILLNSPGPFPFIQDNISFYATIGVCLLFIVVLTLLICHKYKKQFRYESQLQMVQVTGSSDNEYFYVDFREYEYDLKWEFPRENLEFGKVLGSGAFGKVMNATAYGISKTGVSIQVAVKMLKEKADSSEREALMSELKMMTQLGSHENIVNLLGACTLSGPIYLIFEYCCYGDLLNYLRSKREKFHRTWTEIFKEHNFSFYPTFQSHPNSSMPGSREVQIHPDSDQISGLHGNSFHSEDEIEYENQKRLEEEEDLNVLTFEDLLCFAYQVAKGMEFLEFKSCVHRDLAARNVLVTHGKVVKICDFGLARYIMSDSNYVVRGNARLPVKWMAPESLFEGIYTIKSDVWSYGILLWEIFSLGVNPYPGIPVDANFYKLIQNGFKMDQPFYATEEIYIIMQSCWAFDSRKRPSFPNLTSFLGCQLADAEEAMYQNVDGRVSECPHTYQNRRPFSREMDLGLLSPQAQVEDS
The experiment in a line: AlphaScreen kinase assay with recombinant enzyme, FLT3-D835Y. The assay is classed as biochemical. As to conditions: 8pt, GMean. On the procedure: as §1, §2, §3, §4, §5, §6, §7, §8, §9, §10, §11, §12, §13, §14, §15, §16, §17, §18, §19

The target of a further assay is T3, c-KIT (Homo sapiens, UniProt P10721).
T3 construct: purchased Millipore 14-559K
In words: AlphaScreen kinase assay with recombinant enzyme, c-KIT. The assay is classed as biochemical. The note with it: 100ATP, 8pt, GMean. On the procedure:
as §1, §2, §3, §4, §5, §6, §7, §8, §9, §10, §11, §12, §13, §14, §15, §16, §17, §18, §19

The test system of assay [1] is MOLM-14 D835Y cells, FLT3 ITD and FLT3 D835Y. In words: Cell proliferation assay (CellTiter-Glo), MOLM-14 D835Y. The assay is classed as cell-based. The note with it: Homo sapiens, 72 h, 3d-Growth, GMean. The source says:
The FLT3 inhibitors may be assessed using the MOLM-14, Acute Myeloid Leukemia cell line that endogenously expresses FLT3 ITD or derivatives of the human FLT3 AML cell line which acquired the D835Y (activation loop) of F691L (gatekeeper) mutation after selection in escalating doses of the FLT3 Inhibitor AC220. FLT3 inhibitors may also be assessed using cells that are engineered to express mutant FLT3. For engineered cells, murine Ba/F3 cells were transfected with full-length FLT3 ITD/D835Y mutations. The parental BA/F3 cells are dependent upon Interleukin-3 (IL-3) for survival, and introduction of the FLT3 constructs rendered these cells dependent upon FLT3 kinase activity when cultured in the absences of IL-3. Engineered BA/F3 cell growth assays can be performed in either the […] of IL-3, to assess the compound inhibition of FLT3 or to detect the presence of off-target activity, respectively. Inhibitors of FLT3 kinase activity reduce or eliminate the FLT3 oncogenic signaling, resulting in reduced cell proliferation. This inhibition is measured as a function of compound concentration to asses IC50 values.
Cell lines used in proliferation assays are as follows in Table 3:
Cells were seeded at 1×10^4 cells per well of a 96 well cell culture plate in 50 μl of cell culture medium. Compounds were dissolved in DMSO, typically at a concentration of 0.5 mM and were serially diluted 1:3 for a total of eight points and added to the cells to final concentrations of […], 0.0041, 0.0014 and 0.00046 μM in 100 μl cell culture medium (final concentration 0.2% DMSO). […] The cells were incubated at 37° C., 5% CO2 for three days. CellTiter-Glo Buffer (Promega Cell Viability Assay catalog #G7573) and substrate were equilibrated to room temperature, and enzyme/substrate Recombinant Firefly Luciferase/Beetle Luciferin was reconstituted. The cell plates were equilibrated to room temperature for 30 minutes, then lysed by addition of an equivalent volume of the Celltiter-Glo Reagent. The plate was mixed for 10 minutes on a plate shaker to lyse the cells. The plates were read on a Tecan M1000 using Luminescence protocol modified to read 0.1 s per well. The luminescence reading assesses the ATP content, which correlates directly with cell number such that the reading as a function of compound concentration was used to determine the IC50 value.

T3 sequence (P10721 26-976): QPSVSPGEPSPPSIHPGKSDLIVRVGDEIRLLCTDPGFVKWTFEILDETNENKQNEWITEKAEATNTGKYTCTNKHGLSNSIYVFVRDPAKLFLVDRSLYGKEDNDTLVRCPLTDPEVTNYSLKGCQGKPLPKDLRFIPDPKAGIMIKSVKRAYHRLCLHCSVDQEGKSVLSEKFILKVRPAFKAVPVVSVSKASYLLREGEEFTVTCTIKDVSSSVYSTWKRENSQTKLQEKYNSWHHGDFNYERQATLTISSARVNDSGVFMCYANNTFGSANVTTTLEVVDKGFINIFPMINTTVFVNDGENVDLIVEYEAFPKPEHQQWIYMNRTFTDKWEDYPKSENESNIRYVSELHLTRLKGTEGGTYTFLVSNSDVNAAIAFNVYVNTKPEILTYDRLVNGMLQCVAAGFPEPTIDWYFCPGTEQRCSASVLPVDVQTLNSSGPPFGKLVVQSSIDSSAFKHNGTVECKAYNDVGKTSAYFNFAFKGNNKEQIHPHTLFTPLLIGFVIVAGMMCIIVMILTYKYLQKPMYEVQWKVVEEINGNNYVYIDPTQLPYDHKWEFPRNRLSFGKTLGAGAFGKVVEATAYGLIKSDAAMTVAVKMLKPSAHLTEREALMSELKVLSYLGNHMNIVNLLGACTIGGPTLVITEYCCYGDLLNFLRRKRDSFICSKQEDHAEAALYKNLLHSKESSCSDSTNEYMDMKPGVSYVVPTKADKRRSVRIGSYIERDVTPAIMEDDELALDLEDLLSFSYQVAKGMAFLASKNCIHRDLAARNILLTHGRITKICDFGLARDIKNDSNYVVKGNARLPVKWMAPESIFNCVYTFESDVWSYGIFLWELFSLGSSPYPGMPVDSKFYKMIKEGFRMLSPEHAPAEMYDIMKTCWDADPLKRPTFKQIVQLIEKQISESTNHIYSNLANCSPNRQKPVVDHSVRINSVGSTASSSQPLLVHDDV

By IC50 is commonly meant the concentration that inhibits the measured activity by half. Take `Cn1ccc(NC(=O)c2cccc(-c3cnc4[nH]c(-c5ccccc5)cc4c3)n2)n1` [Compound P-0066, N-(1-methylpyrazol-3-yl)-6-(2-phenyl-1H-pyrrolo[2,3-b]pyridin-5-yl)pyridine-2-carboxamide]: the concentration for half-maximal inhibition (IC50) on FLT3-ITD fell in the range of 0.0001 to 10 µM; at FLT3-D835Y it was 0.0001 to 10 µM; at c-KIT it was 50 to 100 µM.

With `O=C(O)C1CCN(C(=O)c2cccc(-c3cnc4[nH]c(-c5ccccc5)cc4c3)n2)CC1` [Compound P-0024, 1-[6-(2-phenyl-1H-pyrrolo[2,3-b]pyridin-5-yl)pyridine-2-carbonyl]piperidine-4-carboxylic acid], the 50% inhibitory concentration (IC50) on FLT3-ITD was in the range of 0.0001 to 10 µM; at FLT3-D835Y, 0.0001 to 10 µM; at c-KIT, 10 to 50 µM.

Regarding `COC(=O)C1(NC(=O)c2cccc(-c3cnc4[nH]c(-c5ccccc5)cc4c3)n2)CC1` [Compound P-0129, methyl 1-[[6-(2-phenyl-1H-pyrrolo[2,3-b]pyridin-5-yl)pyridine-2-carbonyl]amino]cyclopropanecarboxylate], the IC50 (on FLT3-D835Y; in assay [1]) was 0.0001 to 10 µM each time.

On to `Cc1cc(-c2cc3cc(-c4cccc(C(=O)NC(C)(C)C#N)n4)cnc3[nH]2)ccn1` [Compound P-0210, N-(1-cyano-1-methyl-ethyl)-6-[2-(2-methyl-4-pyridyl)-1H-pyrrolo[2,3-b]pyridin-5-yl]pyridine-2-carboxamide], for which the half-inhibitory concentration (IC50) on FLT3-ITD was 0.0001 to 10 µM; on FLT3-D835Y, 0.0001 to 10 µM; on c-KIT it was 50 to 100 µM.

Take `O=C(c1ccc(-c2cnc3[nH]c(-c4ccccc4)cc3c2)s1)N1CCC(n2ccnc2)C1` (centres unmarked) [Compound P-0110, (3-imidazol-1-ylpyrrolidin-1-yl)-[5-(2-phenyl-1H-pyrrolo[2,3-b]pyridin-5-yl)-2-thienyl]methanone]: on c-KIT, the IC50 is 10 to 50 µM.

Take `NC1CCC(NC(=O)c2n[nH]c3ccc(-c4cnc5[nH]c(-c6ccccc6)cc5c4)cc23)CC1` (centres unmarked) [Compound P-0019, N-(4-aminocyclohexyl)-5-(2-phenyl-1H-pyrrolo[2,3-b]pyridin-5-yl)-1H-indazole-3-carboxamide]: the IC50 on FLT3-ITD, at FLT3-D835Y and on c-KIT was 0.0001 to 10 µM in each case.

Regarding `Cn1cc(NC(=O)c2cccc(-c3cnc4[nH]c(-c5ccccc5)cc4c3)n2)cn1` [Compound P-0065, N-(1-methylpyrazol-4-yl)-6-(2-phenyl-1H-pyrrolo[2,3-b]pyridin-5-yl)pyridine-2-carboxamide], the values for the IC50 at FLT3-D835Y and at c-KIT were 0.0001 to 10 µM and 10 to 50 µM, respectively.

Consider `CC(C)(C#N)NC(=O)c1cccc(-c2cnc3[nH]c(-c4ccnc(F)c4)cc3c2)n1` [Compound P-0209, N-(1-cyano-1-methyl-ethyl)-6-[2-(2-fluoro-4-pyridyl)-1H-pyrrolo[2,3-b]pyridin-5-yl]pyridine-2-carboxamide], for which the IC50 was 0.0001 to 10 µM at FLT3-ITD, 0.0001 to 10 µM on FLT3-D835Y and 50 to 100 µM on c-KIT.

Consider `CN[C@H]1CCN(C(=O)c2cccc(-c3cnc4[nH]c(-c5ccccc5)cc4c3)n2)C1` [Compound P-0051, [(3S)-3-(methylamino)pyrrolidin-1-yl]-[6-(2-phenyl-1H-pyrrolo[2,3-b]pyridin-5-yl)-2-pyridyl]methanone], for which the IC50 on FLT3-ITD, at FLT3-D835Y and on c-KIT was 0.0001 to 10 µM throughout.
